Assay results taken from patent US20180280319A1, “COMPOUNDS AND COMPOSITIONS FOR TREATMENT OF BREAST CANCER” (UNIVERSITY OF THE SCIENCES, priority 2017, published 2018).
“Also recorded” adds a separate entry of the source.

Tests used:
MDA-MB-231 cells [1] = assay: ROS detection (Muse oxidative stress kit) in MDA-MB-231 cells; type: cell-based, human; settings: 10 μM, 4 hrs
From the text: (§1) FIG. 4B is a set of images of MDA-MB-231 (TNBC cells) co-cultured with MCF-10A (normal mammary cells) after exposure to DMSO control (left) as well as 3D (right). FIGS. 5A-5E illustrate the finding that 3D induces a rise in reactive oxygen species (ROS) inside TNBC cells and not normal healthy cells.
(§2) Manipulation of reactive oxygen species (ROS) levels is one potential mechanistic target for anti-cancer molecules because high levels of ROS can promote cell death. […] Levels of ROS were detected by assessing the conversion of a non-fluorescent compound (dihydroethidium) to its oxidized metabolite (ethidium bromide) in the presence of intracellularly accumulated ROS following 3D administration using a Muse oxidative stress kit.

BT-549 TNBC cell line = assay: Caspase 3/7 activation in BT-549 cells; type: cell-based; settings: 10 μM, 4 hr
From the text: (§3) FIGS. 7A-7H illustrate the finding that similar death-inducing effects are observed in other triple negative cells lines BT-549 and Hs578T. […] FIG. 7D represents a graphical quantification of caspase3/7 activation by 3D in BT-549. […] FIG. 7H represents a graphical quantification of caspase3/7 activation by 3D in HS-578T.
(§4) In order to explore the broader effects of 3D in the killing of TNBC cells, the experiments reported in Example 2 were repeated in 2 additional cells lines BT-549 and Hs578T.

HS-578T TNBC cell line = assay: Caspase 3/7 activation in Hs578T cells; type: cell-based; settings: 10 μM, 4 hr
From the text: as §3, §4

MDA-MB-231 cells [2] = assay: Caspase 3/7 activity assay in MDA-MB-231 cells; type: cell-based, human; settings: for caspase 3/7 positive cells: DMSO 6.4±1.1%, n=3
Experimental: To identify mechanisms involved in the apoptotic death induced by compound 3D the iodine group (3D) was substituted by a fluorine group (3C) and a caspase 3/7 activity assay kit was utilized, which detects downstream effector apoptosis-causing caspases to assess death of TNBC cells. […] Quantitatively, 49.5±8.3% of cells were caspase 3/7 positive when treated with compound 3D compared to only 6.4±1.1% in the DMSO control group p<0.005 (FIG. 3D).
Further substitution experiments were conducted, replacing the para iodine with chlorine or bromine, as well as experiments wherein the sulfone was removed. To help identify mechanisms involved in the apoptotic death induced by compound 3D, the iodine group was substituted with chlorine or bromine. A caspase 3/7 activity assay kit was used to detect downstream effector apoptosis-causing caspases to assess death of TNBC cells. […] Additionally, when a compound was generated lacking the sulfonyl group, all cytotoxic effects of 3D on TNBC cells was abolished.

MDA-MB-231 cells [3] = assay: Colony formation of MDA-MB-231 cells with and without radiation; type: cell-based, human; settings: 2 Gray radiation dose
Experimental: FIG. 1A is a set of images illustrating colonies of MDA-MB-231 cells exposed to DMSO (control) and compound 3D (10 μM, 4 hrs).
FIG. 1B reports the results depicted in FIG. 1A as a bar graph.
Compound 3D was previously shown to radiosensitize ER-positive breast cancer and prostate cancer cells (U.S. Pat. No. 8,541,476). This compound was then tested to see if it would radiosensitize aggressive TNBC cells such as MDA-MB-231.

MDA-MB-231 cells [4] = assay: Quantitative annexin V death assay (flow cytometry) in MDA-MB-231 cells; type: cell-based, human; settings: n=4-7; for total annexin V-positive cells: DMSO 13.5±2.2%; for live cell population: DMSO 86.4±2.2%
Experimental: To confirm what type of cell death was responsible for the observed activity, a quantitative annexin V death assay was performed to quantify the amount of necrosis (non-specific toxicity) vs apoptosis (programmed cell death) induced by compound 3D. […] Compound 3D decreased live cell population from 86.4±2.2% (DMSO) to 48.1±3.0% (3D: p<0.001) and increased total annexin V-positive cells from 13.5±2.2% (DMSO) to 51.4±3.1% (3D: p<0.001).

[5] = test system: MCF-10A (normal mammary cells); assay: Annexin V assay in normal MCF-10A mammary cells; type: cell-based; settings: normal MCF-10A cells, 10 μM, n=5
From the text: (§5) The effects of compound 3D on survival of MCF-10A (normal mammary cells) were thus examined.

[6] = test system: MCF-10A cells co-cultured with MDA-MB-231 cells; assay: Co-culture of MCF-10A and MDA-MB-231 cells, fluorescence microscopy; type: cell-based, human; settings: 1:1 MCF-10A (mcherry red) and MDA-MB-231 (GFP-green); 10 μM, 4 hrs; n=3
Experimental: To validate the selective nature of 3D towards cancer cells, normal human mammary cells were co-cultured (MCF-10A) with human TNBC cells (MDA-MB-231) in the same culture dish (FIG. 4B) and incubated with 3D to assess the compound's selectivity. This experiment was done by plating a 1:1 ratio of MCF-10A cells (mcherry red) and MDA-MB-231 cells (GFP-green) and challenging them with DMSO or 3D (10 μM) for 4 hrs as described in Example 2. Following the treatments, pictures were acquired at 20× using the EVOS-Fl microscope. […] This co-culture was repeated 3 separate times on different passages (n=3).

MCF-10A cells = assay: ROS detection (Muse oxidative stress kit) in normal MCF-10A cells; type: cell-based, human; settings: 10 μM, 4 hrs, p=0.9
From the text: as §1, §2

ATM (P-ATM ser1981) = assay: Western blot of ATM phosphorylation in MDA-MB-231 cells; type: cell-based, human; settings: 4 hr treatment
From the text: (§6) Effects of 3D on DNA damage in MDA-MB-231 cells was compared to a matching dose of DMSO vehicle.

H2AX (P-H2AX ser139) = assay: Western blot of H2AX phosphorylation in MDA-MB-231 cells; type: cell-based, human; settings: 4 hr treatment
From the text: as §6

MDA-MB-231 cells [7] = assay: Cell morphology under phase contrast microscope, MDA-MB-231 cells; type: cell-based, human
From the text: FIGS. 2B-2G are images of MDA-MB-231 cells treated with DMSO (control), NS-123 and 3D (FIGS. 2B, 2D and 2F) under a phase contrast microscope (10×) and apoptosis profiles for the respective images (FIGS. 2C, 2E and 2G) determined using flow cytometry.
To further investigate the type of cell death induced by treatment of TNBC cells with 3D, its activity was compared to the original parent radiosensitizing compound NS-123 (4-bromo-3-nitrophenyl propan-1-one). FIG. 2A depicts the chemical structures of both the parent NS-123 (left) and compound 3D (right) highlighting the substitution with iodide and sulfonyl moieties in 3D structure compared to a bromide and carbonyl in the original radiosensitizing NS-123.

[8] = test system: MCF-10A (normal mammary cells); assay: Cell morphology of normal MCF-10A cells after treatment; type: cell-based; settings: 10 μM, 4 hrs
From the text: as §5

[9] = test system: ER-positive breast cancer cells; settings: U.S. Pat. No. 8,541,476; cited from earlier work
prostate cancer cells = settings: U.S. Pat. No. 8,541,476; cited from earlier work

| SMILES | ROS accumulation in TNBC cells (MDA-MB-231 cells [1]) | caspase 3/7 activation (BT-549 TNBC cell line) | caspase 3/7 activation (HS-578T TNBC cell line) | apoptosis / killing of TNBC cells by caspase 3/7 activation (MDA-MB-231 cells [2]) | caspase 3/7 positive cells (MDA-MB-231 cells [2]) [%] | total annexin V-positive cells (MDA-MB-231 cells [4]) [%] | live cell population (MDA-MB-231 cells [4]) [%] | cell appearance under phase contrast microscope (10×) (MDA-MB-231 cells [7]) | further results |
| --- | --- | --- | --- | --- | --- | --- | --- | --- | --- |
| O=[N+]([O-])c1ccccc1I [1-iodo-2-nitrobenzene, reference compound] | inactive | inactive | inactive | – | – | – | – | – | – |
| CCS(=O)(=O)c1ccc(F)c([N+](=O)[O-])c1 [Compound 3C, 4-(Ethylsulfonyl)-1-fluoro-2-nitrobenzene] | – | – | – | very low rates of apoptosis | 7.9±3.0 | – | – | – | – |
| CCS(=O)(=O)c1ccc(I)c([N+](=O)[O-])c1 [Compound 3D, 4-(Ethylsulfonyl)-1-iodo-2-nitrobenzene] | significantly raised the levels of ROS | increased caspase 3/7 activation; also recorded: induced an activated caspase-3/7 population | increased caspase 3/7 activation | induced specific caspase 3/7 activation; also recorded: high rates of apoptosis | 49.5±8.3 | 51.4±3.1 | 48.1±3.0 | rounded and unhealthy; also recorded: noticeably misshapen | radiosensitizing effect on colony formation (MDA-MB-231 cells [3]): failed to enhance this action further; also recorded: no radiosensitizing effects; early apoptosis population (MDA-MB-231 cells [2]; DMSO 0.7±0.1%): 0.9±0.2%; caspase 3/7-positive cells in late apoptosis phase (MDA-MB-231 cells [2]; DMSO 5.8±1.0%): 47.4±8.5%; total apoptosis ([5]; DMSO 12.7±5.3%): 12.2±3.2%; cell viability ([5]; DMSO 85.6±5.9%): 86.9±3.3%; selectivity of apoptotic death in co-culture [6]: apoptotic death selectively occurred in the green cells (TNBC) while the red cells (normal) remained healthy; increase in ROS accumulation compared to DMSO (MDA-MB-231 cells [1]; p=0.00005): ~3 fold; ROS accumulation in normal cells (MCF-10A cells): lacking any significant effects; also recorded: no significant increase; total ATM (ATM (P-ATM ser1981)): remains unchanged; phosphorylated levels of ATM (P-ATM ser1981) (ATM (P-ATM ser1981); vs DMSO): significant increase; also recorded: induction; total H2AX (H2AX (P-H2AX ser139)): increased slightly; phosphorylated levels of H2AX (P-H2AX ser139) (H2AX (P-H2AX ser139); vs DMSO): significant increase; also recorded: induction; effect on morphology / health of normal cells [8]: morphology remains intact; also recorded: no observable effect on the health of non-TNBC cells; radiosensitization [9]: radiosensitize; radiosensitization (prostate cancer cells): radiosensitize |
| CCC(=O)c1ccc(Br)c([N+](=O)[O-])c1 [NS-123, 4-bromo-3-nitrophenyl propan-1-one, reference compound] | – | – | – | – | – | 11.6±2.4 | 88.3±2.4 | normal healthy features | – |
